Laboratory results from paper PMC6594751, “The mechanism of error induction by the antibiotic viomycin provides insight into the fidelity mechanism of translation” (eLife, 2019).
Read-outs that look alike come from different tables or passages of the source.

System: 70S ribosomes displaying cognate UUC or near-cognate codons CUC, AUC, UAC or UUA in the A site
Assay: f[^3H]Met-Phe dipeptide formation, quench-flow
Format: biochemical, E. coli
Excerpt: To study the impact of viomycin on translational accuracy, we designed experiments to measure its effect on the kinetic efficiency ( kcat/KM ) of GTP hydrolysis by EF-Tu and peptide bond formation for both cognate and near-cognate codon-anticodon interactions. A reaction mixture containing varying concentrations of viomycin and Phe-tRNAGAAPhe in TC with EF-Tu·GTP was rapidly mixed in a quench-flow instrument with initiated 70S ribosomes displaying either cognate (UUC) or near-cognate (CUC) codons in the A site. For studying GTP hydrolysis, the TCs contained [^3H]GTP and the 70S ribosomes had non-radioactive fMet-tRNA^fMet in the P site, while for studying peptide bond formation the TCs contained non-radioactive GTP and the 70S ribosomes had f[^3H]Met-tRNA^fMet bound in the P site. The reactions were stopped at different times by addition of formic acid and the relative amounts of the reaction products were analyzed by ion-exchange chromatography ([^3H]GDP) or RP-HPLC (f[^3H]Met-Phe) with on-line radiation detection.
The model presented above predicts that viomycin sensitivity ( KInc ) for any codon·anticodon pair depends on the accuracy of initial codon selection as defined by the product of the near-cognate back reaction rate constants q3nc and q4nc (Equations 4 and 5) in the absence as well as presence of viomycin. […] To test this prediction, we measured how the kcat/KM of dipeptide formation varied with viomycin concentration for tRNAGAAPhe reading three additional near-cognate codons (Figure 4A); AUC, UAC or UUA (the underlined base differs from the cognate codon UUC). We quantified the viomycin sensitivity of each codon by estimating its KI value by fitting of Equation 4 to plots of kcat/KM versus viomycin concentration (Figure 4B). We also estimated the accuracies of initial selection by measuring kcat/KM for GTP hydrolysis with the three codons in the absence of viomycin. Both sets of experiments were carried out exactly as described above.
All experiments were performed at 37°C in HEPES-polymix buffer (95 mM KCl, 5 mM NH4Cl, 0.5 mM CaCl2, 8 mM putrescine, 1 mM spermidine, 5 mM Mg(OAc)2, 1 mM dithioerythritol and 5 mM HEPES pH 7.5). All reaction mixes contained 10 mM phosphoenolpyruvate (PEP), 1 µg/ml pyruvate kinase (PK) and 0.1 µg/ml myokinase (MK). His-tagged initiation factors IF1, IF2 and IF3, elongation factor Ts, and phenylalanine and leucine aminoacyl tRNA-synthetases were purified using nickel-affinity chromatography (HisTrap GE Healthcare). Wild-type elongation factor Tu was prepared as in [Ehrenberg et al. (1990)]. All protein concentrations were determined using the Bradford assay. Ribosomes (E. coli MRE600) and f[^3H]Met-tRNA^fMet were prepared according to [Antoun et al. (2004)]; ribosome concentration was determined spectrophotometrically. XR7 mRNAs with coding sequences AUG-UUC, AUG-CUC, AUG-UAC and AUG-UUA were prepared as in [Borg and Ehrenberg (2015)], see theGV Appendix I for full mRNA sequences. tRNA^Phe was prepared as in [Holm et al. (2016)]. [^3H]Met and [^3H]GTP were from Perkin-Elmer, viomycin was from USP, all other chemicals were from either Merck or Sigma-Aldrich.
Two mixtures were prepared. The ribosome mixture contained 70S ribosomes (0.5 µM), IF1, IF2 and IF3 (1 µM each), f[^3H]Met-tRNA^fMet (1 µM), mRNA (2 µM), GTP (1 mM) and ATP (1 mM). The TC mixture contained EF-Tu (1–10 µM), EF-Ts (1 µM), phenylalanine (200 µM), PheRS (0.5 µM), tRNA^Phe (12 µM), viomycin (0–2000 µM), GTP (1 mM) and ATP (1 mM). After 15 min incubation at 37°C, equal volumes of the two mixes were rapidly mixed and the reaction quenched at different time points with formic acid (17% final concentration) using a quench-flow instrument (RQF-3 KinTek corp.). After quenching, the samples were centrifuged at 20,800 g and the supernatant discarded. The pellet was dissolved in 165 µl 0.5 M KOH to cleave the peptides from the tRNA. […]

## viomycin
CUC vs UUC, 1 mM viomycin (83,500 ± 8000 without viomycin)
  total accuracy: 4.0 ± 0.3
CUC vs UUC, 1 mM viomycin vs absence of viomycin
  reduction in total accuracy: 21,000 fold
Codons CUC, AUC, UAC, UUA (Figure 4C)
  correlation of accuracy of initial selection with viomycin KI: clear correlation between the two
Cognate UUC codon, 37°C
  effect of viomycin on kcat/KM of cognate dipeptide formation: did not change with the addition of viomycin
Cognate UUC codon, HEPES-polymix pH 7.5, 37°C, error SEM
  kcat/KM of cognate dipeptide formation (average over viomycin concentrations): 3.83e+07 ± 700000 M⁻¹ s⁻¹
near-cognate CUC codon, 1 mM viomycin (0.0005 ± 0.00004 in the absence of viomycin), HEPES-polymix pH 7.5, 37°C, error SEM
  kcat/KM of near-cognate dipeptide formation: 9.4e+06 ± 800000 M⁻¹ s⁻¹
near-cognate CUC codon, all tested viomycin concentrations
  kcat/KM of near-cognate GTP hydrolysis compared with dipeptide formation: virtually identical
near-cognate CUC, from in vitro experiments
  viomycin concentration required to double the rate at which tRNA^Phe reads the codon CUC: 80 ± 8 nM
near-cognate, proofreading accuracy 115 ± 15 in the absence of viomycin
  proofreading selection by viomycin-bound ribosomes: incapable of performing proofreading selection
tRNA^Phe(GAA) reading near-cognate codon AUC (first position mismatch), fit of Equation 4, accuracy of initial selection 2400 ± 120 without viomycin, read-out: KI from dipeptide formation, AUC
  Ki: 7 ± 0.3 mM
tRNA^Phe(GAA) reading near-cognate codon CUC, fit of Equation 4 (Figure 1D), 37°C, read-out: KI (viomycin concentration at which accuracy has decreased to two), from dipeptide formation, CUC
  Ki: 3.3 ± 0.1 mM
tRNA^Phe(GAA) reading near-cognate codon UAC (second position mismatch), fit of Equation 4, accuracy of initial selection 6400 ± 670 without viomycin, read-out: KI from dipeptide formation, UAC
  Ki: 29 ± 2.7 mM
tRNA^Phe(GAA) reading near-cognate codon UUA (third position mismatch), fit of Equation 4, accuracy of initial selection 580 ± 47 without viomycin, read-out: KI from dipeptide formation, UUA
  Ki: 3.25 ± 0.2 mM
